The test system of one series is human or animal plasma. Nature of the series: Anticoagulation determination: thrombin time (TT) in plasma. Particulars: compound added to plasma; linear extrapolation to doubling of thrombin time. How it is done: Dog plasma and rat plasma are obtained from conscious mixed-breed hounds (either sex, hazelton-LRE, Kalamazoo, Mich., U.S.A.) or from anesthetized male Sprague-Dawley rats (Harlan Sprague-Dawley, Inc., Indianapolis, Ind., U.S.A.) by venipuncture into 3.8 percent citrate. Fibrinogen is prepared from in-date ACD human blood as the fraction I-2 according to previous procedures and specifications. Smith, Biochem. J., 185, 1-11 (1980); and Smith, et al., Biochemistry, 11, 2958-2967 (1972). Human fibrinogen is also purchased as 98 percent pure/plasmin free from American Diagnostica, Greenwich, Conn. Coagulation reagents ACTIN, Thromboplastin, and Human plasma are from Baxter Healthcare Corp., Dade Division, Miami, Fla. Bovine thrombin from Parke-Davis (Detroit, Mich.) is used for coagulation assays in plasma.
Coagulation assay procedures are as previously described. Smith, et al., Thrombosis Research, 50, 163-174 (1988). A CoAScreener coagulation instrument (American LABor, Inc.) is used for all coagulation assay measurements. The thrombin time (TT) is measured by adding 0.05 ml saline and 0.05 ml thrombin (10 NIH units/ml) to 0.05 ml test plasma. The activated partial thromboplastin time (APTT) is measured by incubation of 0.05 ml test plasma with 0.05 ml Actin reagent for 120 seconds followed by 0.05 ml CaCl2 (0.02 M). The prothrombin time (PT) is measured by adding 0.05 ml saline and 0.05 ml Thromboplastin-C reagent to 0.05 ml test plasma. The compounds of formula I are added to human or animal plasma over a wide range of concentrations to determine prolongation effects on the TT, APTT and PT assays. Linear extrapolations are performed to estimate the concentrations required to double the clotting time for each assay. Each of the particularly preferred examples of the invention listed above was determined to have a TT value of less than 50 ng/mL. For example, the respective values (in ng/mL) for TT were 6, 6 and 23 for the compounds of Examples 1, 3 and 5.

The nature of series [1]: Octanol/water distribution coefficient logD at pH 7.4. It is filed as physicochemical.
For a further series, the target named is human thrombin (Homo sapiens, UniProt P00734). The series can be described thus: Inhibition of the amidase activity of thrombin (chromogenic substrate), Kass. It is filed as biochemical. As to conditions: purified human thrombin, N-benzoyl-L-Phe-L-Val-L-Arg-p-nitroanilide, pH 7.4; mean value. As for the experimental part: The assay is carried out by mixing 50 μl buffer (0.03M Tris, 0.15M NaCl, pH 7.4) with 25 μl of human thrombin solution (purified human thrombin, Enzyme Research Laboratories, South Bend, Ind., at 8 NIH units/ml) and 25 μl of test compound in a solvent (50% aqueous methanol (v:v)). Then 150 μl of an aqueous solution of the chromogenic substate (at 0.25 mg/ml) are added and the rates of hydrolysis of the substrate are measured by monitoring the reactions at 405 nm for the release of p-nitroaniline. Standard curves are constructed by plotting free thrombin concentration against hydrolysis rate. The hydrolysis rates observed with test compounds are then converted to “free thrombin” values in the respective assays by use of the standard curves. The bound thrombin (bound to test compound) is calculated by subtracting the amount of free thrombin observed in each assay from the known initial amount of thrombin used in the assay. The amount of free inhibitor in each assay is calculated by subtracting the number of moles of bound thrombin from the number of moles of added inhibitor (test compound). […]
Kass is calculated for a range of concentrations of test compounds and the mean value reported in units of liter per mole. […] For example, each of the particularly preferred examples of the invention listed above was determined to have a Kass of at least 100×10^6 L/mole.

Counter-ions that a name gives are not always drawn.

As for `N=C(N)c1ccc(CNC(=O)[C@@H]2CCCN2C(=O)[C@H](N)CC2CCCCC2)cc1O` [Example 1, D-cyclohexylalanyl-N-[[4-(aminoiminomethyl)-3-hydroxyphenyl]methyl]-L-prolinamide dihydrochloride], the “TT value (concentration required to double the clotting time, thrombin time)” value (shortened to “TT value”) with human or animal plasma is reported as 6 ng/mL.

With `Cl.N=C(N)c1ccc(CNC(=O)[C@@H]2CCCN2C(=O)[C@@H](CC2CCCCC2)NCC(=O)O)cc1O` [Example 3, N-carboxymethyl-D-cyclohexylalanyl-N-[[4-(aminoiminomethyl)-3-hydroxyphenyl]methyl]-L-prolinamide hydrochloride], in series [1], the “logD(7.4)” value came to 0.55. The “Kass (hypothetical equilibrium constant for the reaction between thrombin and the test compound)” value on human thrombin is given as 1,200×10^6 L/mole. Moreover, the “TT value” value in the series with human or animal plasma was 6 ng/mL.

On to `CCS(=O)(=O)N[C@H](CC1CCCCC1)C(=O)N1CCC[C@H]1C(=O)NCc1ccc(C(=N)N)c(O)c1` [Example 5, N-ethylsulfonyl-D-cyclohexylalanyl-N-[[4-(aminoiminomethyl)-3-hydroxyphenyl]methyl]-L-prolinamide hydrochloride], for which, in the series with human or animal plasma, the “TT value” value was 23 ng/mL.

Source of the values: patent publication US6552038B1, “Anticoagulant agents” (Eli Lilly and Company, priority 1996, dated 2003).
